# Measurements taken from ChEMBL document CHEMBL3992482 (Medchemcomm, 2016).
# Activity calls are given as the source filed them. No cut-off for these calls is given here.
# How the values were obtained:
# HeLa [1] = assay: Induction of apoptosis in human HeLa cells assessed as necrotic cells at 5 uM after 24 hrs by Annexin-V FITC/propidium iodide staining based flow cytometry (reference value: 1.81%); assay type: functional
# HeLa [2] = assay: Induction of apoptosis in human HeLa cells after 24 hrs by Annexin-V FITC/propidium iodide staining based flow cytometry; assay type: functional, cell-based
# A549 = assay: Cytotoxicity against human A549 cells assessed as reduction in cell viability after 48 hrs by MTT assay; assay type: functional, cell-based; conditions: A549, 48 h
# HeLa [3] = assay: Induction of apoptosis in human HeLa cells assessed as live cells at 5 uM after 24 hrs by Annexin-V FITC/propidium iodide staining based flow cytometry (reference value: 95.5%); assay type: functional
# HeLa [4] = assay: Cytotoxicity against human HeLa cells assessed as reduction in cell viability after 48 hrs by MTT assay; assay type: functional, cell-based
# HeLa [5] = assay: Cell cycle arrest in human HeLa cells assessed as accumulation at S phase at 10 uM after 24 hrs by propidium iodide staining based flow cytometry (reference value: 23.69%); assay type: functional
# HeLa [6] = assay: Induction of apoptosis in human HeLa cells assessed as early apoptotic cells at 10 uM after 24 hrs by Annexin-V FITC/propidium iodide staining based flow cytometry (reference value: 2.36%); assay type: functional
# HeLa [7] = assay: Induction of apoptosis in human HeLa cells assessed as late apoptotic cells at 10 uM after 24 hrs by Annexin-V FITC/propidium iodide staining based flow cytometry (reference value: 0.29%); assay type: functional
# HeLa [8] = assay: Cell cycle arrest in human HeLa cells assessed as accumulation at G2/M phase at 10 uM after 24 hrs by propidium iodide staining based flow cytometry (reference value: 9.89%); assay type: functional
# HeLa [9] = assay: Induction of apoptosis in human HeLa cells assessed as ring shaped cell masses at 5 to 10 uM after 24 hrs by […] staining based fluorescence microscopic method; assay type: functional
# HeLa [10] = assay: Induction of apoptosis in human HeLa cells assessed as crescent shaped cell masses at 5 to 10 uM after 24 hrs by […] staining based fluorescence microscopic method; assay type: functional
# MCF7 = assay: Cytotoxicity against human MCF7 cells assessed as reduction in cell viability after 48 hrs by MTT assay; assay type: functional, cell-based; conditions: MCF7, 48 h
# HeLa [11] = assay: Cell cycle arrest in human HeLa cells assessed as accumulation at G2/M phase at 5 uM after 24 hrs by propidium iodide staining based flow cytometry (reference value: 9.89%); assay type: functional
# HeLa [12] = assay: Induction of apoptosis in human HeLa cells assessed as early apoptotic cells at 5 uM after 24 hrs by Annexin-V FITC/propidium iodide staining based flow cytometry (reference value: 2.36%); assay type: functional
# HeLa [13] = assay: Cell cycle arrest in human HeLa cells assessed as accumulation at S phase at 5 uM after 24 hrs by propidium iodide staining based flow cytometry (reference value: 23.69%); assay type: functional
# HeLa [14] = assay: Cell cycle arrest in human HeLa cells assessed as accumulation at S phase after 24 hrs by propidium iodide staining based flow cytometry; assay type: functional
# HeLa [15] = assay: Cell cycle arrest in human HeLa cells assessed as accumulation at G1 phase at 10 uM after 24 hrs by propidium iodide staining based flow cytometry (reference value: 66.42%); assay type: functional
# HeLa [16] = assay: Induction of apoptosis in human HeLa cells assessed as nuclear fragmentation after 24 hrs by acridine orange/ethidium bromide staining based fluorescence confocal microscopic method; assay type: functional, cell-based
# HeLa [17] = assay: Cell cycle arrest in human HeLa cells assessed as accumulation at G1 phase at 5 uM after 24 hrs by propidium iodide staining based flow cytometry (reference value: 66.42%); assay type: functional
# HeLa [18] = assay: Induction of apoptosis in human HeLa cells assessed as live cells at 10 uM after 24 hrs by Annexin-V FITC/propidium iodide staining based flow cytometry (reference value: 95.5%); assay type: functional
# HeLa [19] = assay: Induction of apoptosis in human HeLa cells assessed as necrotic cells at 10 uM after 24 hrs by Annexin-V FITC/propidium iodide staining based flow cytometry (reference value: 1.81%); assay type: functional
# HeLa [20] = assay: Induction of apoptosis in human HeLa cells assessed as late apoptotic cells at 5 uM after 24 hrs by Annexin-V FITC/propidium iodide staining based flow cytometry (reference value: 0.29%); assay type: functional
# HeLa [21] = assay: Induction of apoptosis in human HeLa cells assessed as chromatin condensation after 24 hrs by acridine orange/ethidium bromide staining based fluorescence confocal microscopic method; assay type: functional, cell-based
SMILES,IC50 (A549) [µM],IC50 (HeLa [4]) [µM],IC50 (MCF7) [µM],further results
CC(C)(C)c1nc(Nc2cc(C(F)(F)F)cc(C(F)(F)F)c2)sc1Cc1ccc2c(c1)OCO2,3.52,2.07,9.03,Activity (HeLa [1]): 0.69%; Activity (HeLa [2]): Dose-dependent effect; Activity (HeLa [3]): 77.8%; Activity (HeLa [5]): 35.93%; Activity (HeLa [6]): 62.7%; Activity (HeLa [7]): 1.94%; Activity (HeLa [8]): 17.93%; Activity (HeLa [9]): Active; Activity (HeLa [10]): Active; Activity (HeLa [11]): 16.03%; Activity (HeLa [12]): 19.2%; Activity (HeLa [13]): 27.1%; Activity (HeLa [14]): Dose-dependent effect; Activity (HeLa [15]): 46.14%; Activity (HeLa [16]): Dose-dependent effect; Activity (HeLa [17]): 56.87%; Activity (HeLa [18]): 35.1%; Activity (HeLa [19]): 0.23%; Activity (HeLa [20]): 2.27%; Activity (HeLa [21]): Dose-dependent effect
CC(C)(C)c1nc(Nc2cc(Cl)cc(Cl)c2)sc1Cc1ccc2c(c1)OCO2,17,5.8,17.7,–
CC(C)(C)c1nc(Nc2ccccc2F)sc1Cc1ccc2c(c1)OCO2,7.57,18.3,4.49,–
CC(C)(C)c1nc(Nc2c(Br)cc(OC(F)(F)F)cc2Br)sc1Cc1ccc2c(c1)OCO2,103,53.3,103,–
CC(C)(C)c1nc(Nc2ccccc2[N+](=O)[O-])sc1Cc1ccc2c(c1)OCO2,82.8,194,> 200,–
CC(C)(C)c1nc(Nc2cccc(Cl)c2Cl)sc1Cc1ccc2c(c1)OCO2,14.2,34.6,19.4,–
CC(C)(C)c1nc(Nc2ccc([N+](=O)[O-])cc2F)sc1Cc1ccc2c(c1)OCO2,67.2,19.3,33.3,–
Cc1cccc(Nc2nc(C(C)(C)C)c(Cc3ccc4c(c3)OCO4)s2)c1,12.7,18.8,4.91,–
Cc1cccc(C)c1Nc1nc(C(C)(C)C)c(Cc2ccc3c(c2)OCO3)s1,15.9,83.5,20.1,–
CC(C)(C)c1nc(Nc2cccc(Cl)c2)sc1Cc1ccc2c(c1)OCO2,2.06,8.27,3,–
CC(C)(C)c1nc(Nc2ccccc2)sc1Cc1ccc2c(c1)OCO2,20.4,12,11.6,–
CC(C)(C)c1nc(Nc2ccc(Cl)cc2)sc1Cc1ccc2c(c1)OCO2,9.19,11,3.48,–
CC(C)(C)c1nc(Nc2ccc(F)c(Cl)c2)sc1Cc1ccc2c(c1)OCO2,16.3,4.6,8.66,Activity (HeLa [1]): 0.61%; Activity (HeLa [2]): Dose-dependent effect; Activity (HeLa [3]): 86.1%; Activity (HeLa [5]): 36.63%; Activity (HeLa [6]): 19.5%; Activity (HeLa [7]): 4.39%; Activity (HeLa [8]): 9.56%; Activity (HeLa [9]): Active; Activity (HeLa [10]): Active; Activity (HeLa [11]): 10.51%; Activity (HeLa [12]): 11.7%; Activity (HeLa [13]): 28.69%; Activity (HeLa [14]): Dose-dependent effect; Activity (HeLa [15]): 53.81%; Activity (HeLa [16]): Dose-dependent effect; Activity (HeLa [17]): 60.8%; Activity (HeLa [18]): 75.2%; Activity (HeLa [19]): 0.94%; Activity (HeLa [20]): 1.58%; Activity (HeLa [21]): Dose-dependent effect
CC(C)(C)c1nc(Nc2ccccc2Br)sc1Cc1ccc2c(c1)OCO2,26.1,52,39.9,–
Cc1ccc(Nc2nc(C(C)(C)C)c(Cc3ccc4c(c3)OCO4)s2)cc1C,12.2,20.7,20.4,–
CC(C)(C)c1nc(Nc2ccc(F)cc2)sc1Cc1ccc2c(c1)OCO2,5.81,25.3,15,–
CC(C)(C)c1nc(Nc2cccc3ccccc23)sc1Cc1ccc2c(c1)OCO2,55.2,14.1,22.3,–

SMILES,IC50 (A549) [µM],IC50 (HeLa [4]) [µM],IC50 (MCF7) [µM],further results
CC(C)(C)c1nc(Nc2ccc(Cl)c(Cl)c2)sc1Cc1ccc2c(c1)OCO2,11.5,7.83,11.2,–
CC(C)(C)c1nc(Nc2ccccn2)sc1Cc1ccc2c(c1)OCO2,5.13,4.79,4.71,–
CC(C)(C)c1nc(Nc2ccc([N+](=O)[O-])cc2Cl)sc1Cc1ccc2c(c1)OCO2,80.9,51.7,76.5,–
Cc1ccc2cccc(Nc3nc(C(C)(C)C)c(Cc4ccc5c(c4)OCO5)s3)c2n1,55.5,65.1,> 200,–
CC(C)(C)c1nc(Nc2ccc(Br)cc2)sc1Cc1ccc2c(c1)OCO2,10.1,13.3,4.71,–
O=c1[nH]cc(F)c(=O)[nH]1 [FLUOROURACIL],26,56.5,79.3,–
CCOC(=O)c1ccc(Nc2nc(C(C)(C)C)c(Cc3ccc4c(c3)OCO4)s2)cc1,8.51,47.5,5.95,–
CC(C)(C)c1nc(Nc2ccc([N+](=O)[O-])cc2)sc1Cc1ccc2c(c1)OCO2,8.26,4.15,2.55,–
CC(C)(C)c1nc(Nc2ccc(C(F)(F)F)cc2)sc1Cc1ccc2c(c1)OCO2,9.22,10.4,3.54,–
Cc1ccccc1Nc1nc(C(C)(C)C)c(Cc2ccc3c(c2)OCO3)s1,18.7,24.8,19.1,–
CC(C)(C)c1nc(Nc2ccccc2Cl)sc1Cc1ccc2c(c1)OCO2,6.84,18.9,8.99,–
CC(=O)O[C@H]1C(=O)[C@@]2(C)[C@H]([C@H](OC(=O)c3ccccc3)[C@]3(O)C[C@H](OC(=O)[C@H](O)[C@@H](NC(=O)c4ccccc4)c4ccccc4)C(C)=C1C3(C)C)[C@]1(OC(C)=O)CO[C@@H]1C[C@@H]2O [PACLITAXEL],21,19.3,14,–
COc1ccc(Nc2nc(C(C)(C)C)c(Cc3ccc4c(c3)OCO4)s2)cc1,10.1,11.7,9.36,–
Cc1ccc(Nc2nc(C(C)(C)C)c(Cc3ccc4c(c3)OCO4)s2)c(C)c1,11.3,18.9,18.7,–
CC(C)(C)c1nc(Nc2cccc(Br)c2)sc1Cc1ccc2c(c1)OCO2,5,6.43,4.66,–
CC(C)(C)c1nc(Nc2cccc(C(F)(F)F)c2)sc1Cc1ccc2c(c1)OCO2,15.8,13,3.32,–
